Source: US9290447B2, “(20R) and (20S)-24-(p-toluenesulfonyloxy)-25,26,27-trinorvitamin D3 analogs and their uses” (Wisconsin Alumni Research Foundation, priority 2011, dated 2016)
One block for each molecule: values may come before it.

Columns and labels:
HL-60 cells = assay: HL-60 differentiation (nitro blue tetrazolium reduction); type: cell-based, human; details: FIG. 2
Protocol: The study drugs were dissolved in ethanol and the concentrations determined using UV spectrophotometry. Serial dilutions were prepared so that a range of drug concentrations could be tested without changing the final concentration of ethanol (≦0.2%) present in the cell cultures.
Human promyelocytic leukemia (HL60) cells were grown in RPMI-1640 medium containing 10% fetal bovine serum. The cells were incubated at 37° C. in the presence of 5% CO2.
HL60 cells were plated at 1.2×10^5 cells/ml. Eighteen hours after plating, cells in duplicate were treated with drug. Four days later, the cells were harvested and a nitro blue tetrazolium reduction assay was performed (Collins et al., 1979; J. Exp. Med. 149:969-974). The percentage of differentiated cells was determined by counting a total of 200 cells and recording the number that contained intracellular black-blue formazan deposits. Verification of differentiation to monocytic cells was determined by measuring phagocytic activity (data not shown).

vitamin D-deficient rats [1] = assay: Intestinal calcium transport (everted gut sac method); type: in vivo, rat; details: 4 consecutive ip doses, FIG. 10
Protocol: (§1) Male, weanling Sprague-Dawley rats were placed on Diet 11 (Suda et al, J. Nutr. 100:1049, 1970) (0.47% Ca)+AEK oil for one week followed by Diet 11 (0.02% Ca)+AEK oil for 3 weeks. The rats were then switched to the same diet containing 0.47% Ca for one week followed by two weeks on the same diet containing 0.02% Ca. Dose administration began during the last week on 0.02% calcium diet. Four consecutive intraperitoneal (ip) doses were given approximately 24 hours apart. Twenty-four hours after the last dose, blood was collected from the severed neck and the concentration of serum calcium determined by atomic absorption spectrometry as a measure of bone calcium mobilization. The first 10 cm of the intestine was also collected for intestinal calcium transport analysis using the everted gut sac method.

HL-60 leukemia cells = assay: Cell viability, HL-60 leukemia cells; type: cell-based, human; details: four days growth, methylene blue; FIG. 4A/4B
Protocol: (§2) Various cell lines were plated, administered a range of drug concentrations one time, allowed to grow for four days and then the number of cells present counted and expressed as a percentage of those present in the vehicle control plates. […] The number of live cells was expressed as a percentage of the total present. Each assay was done in duplicate.

[2] = system: H-82 lung carcinoma cells; assay: Cell viability, H-82 lung carcinoma cells; type: cell-based; details: four days growth, methylene blue; FIG. 5A/5B
Protocol: as §2

[3] = system: DU-145 prostate cancer cells; assay: Cell viability, DU-145 prostate cancer cells; type: cell-based; details: four days growth, methylene blue; FIG. 6
Protocol: as §2

[4] = system: ROS 17/2.8 bone cancer cells; assay: Cell viability, ROS 17/2.8 bone cancer cells; type: cell-based; details: four days growth, methylene blue; FIG. 7
Protocol: as §2

[5] = molecular target: T1, full-length recombinant rat vitamin D receptor (Rattus norvegicus, UniProt P13053); assay: Vitamin D receptor competitive binding with [3H]-1,25(OH)2D3; details: compared to 1α,25-dihydroxyvitamin D3; FIG. 1
T1 construct: Full-length recombinant rat receptor was expressed in E. coli; histidine tag (C); made in house; host or cells: E. coli BL21 (DE3) Codon Plus RIL
T1 sequence (P13053 1-423): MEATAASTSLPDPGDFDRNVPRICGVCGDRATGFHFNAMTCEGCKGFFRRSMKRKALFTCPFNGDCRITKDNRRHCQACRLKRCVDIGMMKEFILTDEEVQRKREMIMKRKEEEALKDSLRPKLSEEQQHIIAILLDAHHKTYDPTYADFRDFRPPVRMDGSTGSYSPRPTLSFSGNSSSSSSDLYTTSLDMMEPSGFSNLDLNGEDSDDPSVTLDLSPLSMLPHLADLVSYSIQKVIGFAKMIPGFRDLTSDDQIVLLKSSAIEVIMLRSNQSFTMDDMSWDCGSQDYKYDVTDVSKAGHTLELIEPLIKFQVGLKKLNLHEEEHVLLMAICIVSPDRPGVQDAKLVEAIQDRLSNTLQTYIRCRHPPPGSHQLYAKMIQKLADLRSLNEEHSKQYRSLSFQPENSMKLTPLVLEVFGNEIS
Protocol: Full-length recombinant rat receptor was expressed in E. coli BL21 (DE3) Codon Plus RIL cells and purified to homogeneity using two different column chromatography systems. The first system was a nickel affinity resin that utilizes the C-terminal histidine tag on this protein. […] Aliquots of the purified protein were quick frozen in liquid nitrogen and stored at −80° C. until use. For use in binding assays, the protein was diluted in TEDK50 (50 mM Tris, 1.5 mM EDTA, pH7.4, 5 mM DTT, 150 mM KCl) with 0.1% Chaps detergent. The receptor protein and ligand concentration was optimized such that no more than 20% of the added radiolabeled ligand was bound to the receptor.
Radiolabeled and unlabeled ligands were added to 100 mcl of the diluted protein at a final ethanol concentration of ≦10%, mixed and incubated overnight on ice to reach binding equilibrium. The following day, 100 mcl of hydroxylapatite slurry (50%) was added to each tube and mixed at 10-minute intervals for 30 minutes. The hydroxylapaptite was collected by centrifugation and then washed three times with Tris-EDTA buffer (50 mM Tris, 1.5 mM EDTA, pH 7.4) containing 0.5% Titron X-100. […] Total binding was determined from the tubes containing only radiolabeled ligand.

vitamin D-deficient rats [6] = assay: Bone calcium mobilization (serum calcium); type: in vivo, rat; details: rats on 0.02% Ca diet, FIG. 9
Protocol: as §1

[7] = system: 24-hydroxylase (24Ohase) gene promoter; assay: In vitro transcription assay (24-hydroxylase promoter luciferase reporter in ROS 17/2.8 bone cells); type: cell-based; details: FIG. 3
Protocol: Cells were given a range of doses. Sixteen hours alter dosing the cells were harvested and luciferase activities were measured using a luminometer. RLU=relative luciferase units.

[8] = Change in body weight of dosed animals; type: in vivo, rat; details: various doses; FIG. 11
Protocol: as §1

[9] = system: OVCAR3 ovarian cancer cells; assay: Cell viability, OVCAR3 ovarian cancer cells; type: cell-based; details: four days growth, methylene blue; FIG. 8
Protocol: as §2

VDR binding activity relative to natural hormone (times less active) [5]: at least 100 times less active
SMILES: C=C1CC[C@H](O)C/C1=C/C=C1\CCC[C@]2(C)[C@@H]([C@H](C)CCCOS(=O)(=O)c3ccc(C)cc3)CC[C@@H]12 [TS-17, (20R)-25,26,27-trinor-24-(p-methylphenylsulfonate)-vitamin D3]
HL-60 cell differentiation (in words) (HL-60 cells): does not promote HL60 differentiation | Intestinal calcium transport activity (vitamin D-deficient rats [1]; 35,100 pmol/rat): little to no activity | Viability of HL-60 leukemia cells (HL-60 leukemia cells): kills HL-60 leukemia cells | Viability of H-82 lung carcinoma cells [2]: kills H-82 lung carcinoma cells | Viability of DU-145 prostate cells [3]: does not have any significant effect on the viability | Viability of ROS 17/2.8 bone cancer cells [4]: does not have any significant effect on the viability | Bone calcium mobilization (serum calcium) (vitamin D-deficient rats [6]; 35,100 pmol/day for 4 consecutive days, ip): little or no mobilization of bone calcium | Transcriptional activity in bone cells (in words) ([7]; until very high doses are administered): lacks any transcriptional activity | Body weight throughout the test period [8]: substantially maintain their body weight | Viability of OVCAR3 ovarian cancer cells [9]: does not have any significant effect on the viability

SMILES: C=C1/C(=C\C=C2/CCC[C@]3(C)[C@@H]([C@H](C)CCCC(C)(C)O)CC[C@@H]23)C[C@@H](O)C[C@@H]1O [1,25(OH)2D3, 1α,25-dihydroxyvitamin D3, reference compound]
EC50 (HL-60 cells; four days after treatment, read-out: EC50, HL-60 cell differentiation): 2 nM | Intestinal calcium transport activity (vitamin D-deficient rats [1]; 260 pmol and 780 pmol doses): significant increase in activity | Viability of HL-60 leukemia cells (HL-60 leukemia cells): does not have any significant effect on the viability | Viability of H-82 lung carcinoma cells [2]: requires a significantly higher dose | Bone calcium mobilization (serum calcium) (vitamin D-deficient rats [6]; 4 consecutive ip doses): significant increases in serum calcium | EC50 ([7]; ROS 17/2.8 cells, 16 h after dosing): 0.1 nM
